Consider 10 molecules from US8993574B2, “Pyrrole antifungal agents” (F2G Ltd, priority 2008, dated 2015).

≈ marks a conversion by molar mass, not a printed value.

What all share (type): cell-based
In assay [1] the test system is Aspergillus fumigatus AF210. As to the kind of experiment: MIC, YAG medium. The conditions noted are these: 24 h at 35° C, MIC banded into grades; for MIC: Aspergillus fumigatus, read-out: MIC grade, A. fumigatus 210. Summed up: (§1)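 DMSO stocks diluted in water as doubling series; spore suspension in YAG (glucose, NH4Cl, yeast extract) added to give 1−2×10^4 cfu/mL. 35° C, 24 h. Growth by OD485; MIC at >70% inhibition, mg/L.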

The subject of assay [2] is Aspergillus fumigatus AF293. The assay is described as follows: MIC, YAG medium. The conditions noted are these: 24 h at 35° C, MIC banded into grades; for MIC: Aspergillus fumigatus, read-out: MIC grade, A. fumigatus. Summed up:
as §1

In assay [3] the test system is Aspergillus terreus AT4. The assay is described as follows: MIC, YAG medium. The following applies: 24 h at 35° C, MIC banded into grades; for MIC: Aspergillus terreus, read-out: MIC grade, A. terreus. The method, boiled down: as §1
In assay [4] the test system is Aspergillus niger. As to the kind of experiment: MIC, YAG medium. The conditions noted are these: 24 h at 35° C, MIC banded into grades; for MIC: Aspergillus niger, read-out: MIC grade, A. niger. The method, boiled down:
as §1

Assay [5] relates to Aspergillus terreus AT49. The assay is described as follows: MIC, YAG medium. The conditions noted are these: 24 h at 35° C, MIC banded into grades; for MIC: Aspergillus terreus, read-out: MIC grade, A. terreus 49. The method, boiled down: as §1
In assay [6] the test system is Aspergillus flavus. The assay is described as follows: MIC, YAG medium. The conditions noted are these: 24 h at 35° C, MIC banded into grades; for MIC: Aspergillus flavus, 24 h, read-out: MIC grade, A. flavus. Summed up: as §1
For assay [7], the system named is Aspergillus fumigatus AF210. As to the kind of experiment: MIC, RPMI medium. The following applies: for MIC: Aspergillus fumigatus, AF210, MIC banded into grades, read-out: MIC grade, A. fumigatus 210. Summed up: (§2)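 Fungi are tested in RPMI buffered with 0.135 M MOPS (pH 7.0) plus 2% glucose, inoculum 1−2×10^4 cfu/mL, against doubling compound dilutions spanning 50-0.05 mg/L. After 24-48 h at 35° C, the MIC is the lowest concentration suppressing growth by >80% against drug-free control.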

Assay [8] relates to Aspergillus fumigatus AF293. The assay is described as follows: MIC, RPMI medium. The following applies: for MIC: Aspergillus fumigatus, AF293, MIC banded into grades, read-out: MIC grade, A. fumigatus. Summed up: as §2
Assay [9] relates to Aspergillus terreus AT4. As to the kind of experiment: MIC, RPMI medium. The conditions noted are these: for MIC: Aspergillus terreus, AT4, MIC banded into grades, read-out: MIC grade, A. terreus. Summed up:
as §2

Assay [10] deals with Aspergillus niger. The assay is described as follows: MIC, RPMI medium. The following applies: MIC banded into grades; for MIC: Aspergillus niger, read-out: MIC grade, A. niger. Summed up: as §2
Assay [11] deals with Aspergillus terreus AT49. As to the kind of experiment: MIC, RPMI medium. The conditions noted are these: for MIC: Aspergillus terreus, AT49, MIC banded into grades, read-out: MIC grade, A. terreus 49. The method, boiled down:
as §2

Assay [12] has as its system Aspergillus flavus. As to the kind of experiment: MIC, RPMI medium. The conditions noted are these: MIC banded into grades; for MIC: Aspergillus flavus, read-out: MIC grade, A. flavus. The method, boiled down:
as §2

What is called MIC is the lowest concentration that inhibits growth of the organism. Consider `CCc1cc(-c2ccccc2)c(C(=O)C(=O)Nc2ccc(N3CCN(c4cc(C)cc(C)n4)CC3)cc2)n1C` [Example 53, N-{4-[4-(4,6-Dimethyl-pyridin-2-yl)-piperazin-1-yl]-phenyl}-2-(5-ethyl-1-methyl-3-phenyl-1H-pyrrol-2-yl)-2-oxo-acetamide], for which the minimal inhibitory concentration (MIC) (in assay [1]; in assay [2]; in the assay with Aspergillus terreus AT4 [3]; with Aspergillus niger [4]; in the assay with Aspergillus terreus AT49 [5]; with Aspergillus flavus [6]) was < 1 µg/mL each time. Also, the MIC (in assay [7]; in assay [8]; with Aspergillus terreus AT4 [9]; in the assay with Aspergillus niger [10]; in the assay on Aspergillus terreus AT49 [11]; with Aspergillus flavus [12]) was < 1 µg/mL throughout.

On to `Cc1cc(C)nc(N2CCN(c3ccc(NC(=O)C(=O)c4c(-c5ccccc5)cc(C)n4C)cc3C)CC2)c1` [Example 51, 2-(1,5-Dimethyl-3-phenyl-1H-pyrrol-2-yl)-N-{4-[4-(4,6-dimethyl-pyridin-2-yl)-piperazin-1-yl]-3-methyl-phenyl}-2-oxo-acetamide], for which the MIC (in assay [1]; in assay [2]; in the assay with Aspergillus terreus AT4 [3]; in the assay with Aspergillus niger [4]; in the assay on Aspergillus terreus AT49 [5]; in the assay with Aspergillus flavus [6]) was < 1 µg/mL in each case. Further, the MIC (in [7]; in assay [8]; in the assay on Aspergillus terreus AT4 [9]; with Aspergillus niger [10]; with Aspergillus terreus AT49 [11]; in the assay with Aspergillus flavus [12]) was < 1 µg/mL in each case.

Consider `COCCn1c(C)c(F)c(-c2ccccc2)c1C(=O)C(=O)Nc1ccc(N2CCN(c3cc(C)cc(C)n3)CC2)cc1` [Example 94, N-{4-[4-(4,6-Dimethyl-pyridin-2-yl)-piperazin-1-yl]-phenyl}-2-[4-fluoro-1-(2-methoxy-ethyl)-5-methyl-3-phenyl-1H-pyrrol-2-yl]-2-oxo-acetamide], for which the MIC in [1] is < 1 µg/mL; in assay [2], < 1 µg/mL; with Aspergillus terreus AT4 [3], < 1 µg/mL; in the assay on Aspergillus niger [4], 1 to 10 µg/mL (≈ 1.76 to 17.6 µM); in the assay with Aspergillus terreus AT49 [5] it was < 1 µg/mL; with Aspergillus flavus [6], 1 to 10 µg/mL (≈ 1.76 to 17.6 µM). The minimal inhibitory concentration (MIC) in assay [7] is 1 to 10 µg/mL (≈ 1.76 to 17.6 µM); in assay [8], < 1 µg/mL; in the assay on Aspergillus terreus AT4 [9] it was 1 to 10 µg/mL (≈ 1.76 to 17.6 µM); in the assay on Aspergillus niger [10], 1 to 10 µg/mL (≈ 1.76 to 17.6 µM); in the assay with Aspergillus terreus AT49 [11], 1 to 10 µg/mL (≈ 1.76 to 17.6 µM); in the assay on Aspergillus flavus [12] it was > 10 µg/mL.

On to `COCCCn1c(C)cc(-c2ccccc2)c1C(=O)C(=O)Nc1ccc(N2CCN(c3cc(C)cc(C)n3)CC2)cc1` [Example 28, N-{4-[4-(4,6-Dimethyl-pyridin-2-yl)-piperazin-1-yl]-phenyl}-2-[1-(3-methoxy-propyl)-5-methyl-3-phenyl-1H-pyrrol-2-yl]-2-oxo-acetamide], for which the MIC in assay [1] is < 1 µg/mL; in [2], < 1 µg/mL; in the assay with Aspergillus terreus AT4 [3], < 1 µg/mL; with Aspergillus niger [4], < 1 µg/mL; in the assay on Aspergillus terreus AT49 [5], < 1 µg/mL; in the assay with Aspergillus flavus [6] it was 1 to 10 µg/mL (≈ 1.77 to 17.7 µM). The MIC in assay [7] is < 1 µg/mL; in [8], < 1 µg/mL; in the assay with Aspergillus terreus AT4 [9], 1 to 10 µg/mL (≈ 1.77 to 17.7 µM); in the assay with Aspergillus niger [10], < 1 µg/mL; in the assay on Aspergillus terreus AT49 [11], 1 to 10 µg/mL (≈ 1.77 to 17.7 µM); with Aspergillus flavus [12], 1 to 10 µg/mL (≈ 1.77 to 17.7 µM).

On to `CCOC(=O)n1c(C)cc(-c2ccccc2)c1C(=O)C(=O)Nc1ccc(N2CCN(c3cc(C)cc(C)n3)CC2)cc1` [Example 55, 2-{4-[4-(4,6-Dimethyl-pyridin-2-yl)-piperazin-1-yl]-phenylaminooxalyl}-5-methyl-3-phenyl-pyrrole-1-carboxylic acid ethyl ester], for which the figures for the “MIC grade, A. fumigatus 210” value in [1] and in [7] (MIC banded into grades) were 2 (A grade of 2 represents an MIC of from 1 to 10 mg/L) and 1 (a grade of 1 represents an MIC of greater than 10 mg/L), respectively. Further, the “MIC grade, A. fumigatus” value is 2 (A grade of 2 represents an MIC of from 1 to 10 mg/L) in assay [2] and 1 (a grade of 1 represents an MIC of greater than 10 mg/L) in [8] (MIC banded into grades). Further, the “MIC grade, A. terreus” value against Aspergillus terreus AT4 [3] and against Aspergillus terreus AT4 [9] (MIC banded into grades) was 1 (a grade of 1 represents an MIC of greater than 10 mg/L) each time. For the same molecule, the “MIC grade, A. niger” value against Aspergillus niger [4] and in the assay on Aspergillus niger [10] was 1 (a grade of 1 represents an MIC of greater than 10 mg/L) in each case. The “MIC grade, A. terreus 49” value is 2 (A grade of 2 represents an MIC of from 1 to 10 mg/L) against Aspergillus terreus AT49 [5] and 1 (a grade of 1 represents an MIC of greater than 10 mg/L) in the assay with Aspergillus terreus AT49 [11] (MIC banded into grades). Also, the “MIC grade, A. flavus” value in the assay with Aspergillus flavus [6] and in the assay on Aspergillus flavus [12] was 1 (a grade of 1 represents an MIC of greater than 10 mg/L) each time.

Regarding `Cc1cc(-c2ccccc2)c(C(=O)C(=O)Nc2ccc(N3CCCC3)nc2)n1C` [Example 99, 2-(1,5-Dimethyl-3-phenyl-1H-pyrrol-2-yl)-2-oxo-N-(6-pyrrolidin-1-yl-pyridin-3-yl)-acetamide], the MIC in [1] was < 1 µg/mL; in [2] it was 1 to 10 µg/mL (≈ 2.57 to 25.7 µM); with Aspergillus terreus AT4 [3] it was < 1 µg/mL; in the assay on Aspergillus niger [4], 1 to 10 µg/mL (≈ 2.57 to 25.7 µM); in the assay on Aspergillus terreus AT49 [5] it was < 1 µg/mL; in the assay on Aspergillus flavus [6], < 1 µg/mL. Besides, the MIC in assay [7] is 1 to 10 µg/mL (≈ 2.57 to 25.7 µM); in assay [8], < 1 µg/mL; in the assay with Aspergillus terreus AT4 [9], < 1 µg/mL; in the assay with Aspergillus niger [10], < 1 µg/mL; with Aspergillus terreus AT49 [11] it was < 1 µg/mL; with Aspergillus flavus [12], < 1 µg/mL.

On to `Cc1cc(C)nc(N2CCN(c3ccc(NC(=O)C(=O)c4c(-c5ccccc5)cc(C)n4C)cc3COCCCN3CCOCC3)CC2)c1` [Example 10, 2-(1,5-Dimethyl-3-phenyl-1H-pyrrol-2-yl)-N-[4-[4-(4,6-dimethyl-pyridin-2-yl)-piperazin-1-yl]-3-(3-morpholin-4-yl-propoxymethyl)-phenyl]-2-oxo-acetamide], for which the MIC in [1] was > 10 µg/mL; in assay [2], > 10 µg/mL; with Aspergillus terreus AT4 [3], > 10 µg/mL; with Aspergillus niger [4], > 10 µg/mL; in the assay with Aspergillus terreus AT49 [5], 1 to 10 µg/mL (≈ 1.5 to 15 µM); in the assay with Aspergillus flavus [6] it was 1 to 10 µg/mL (≈ 1.5 to 15 µM). Also, the MIC (in [7]; in [8]; with Aspergillus terreus AT4 [9]; in the assay on Aspergillus niger [10]; with Aspergillus terreus AT49 [11]; in the assay with Aspergillus flavus [12]) was > 10 µg/mL in each case.

`COCCn1c(C)cc(-c2ccccc2)c1C(=O)C(=O)Nc1cccc2cnccc12` [Example 30, N-Isoquinolin-5-yl-2-[1-(2-methoxy-ethyl)-5-methyl-3-phenyl-1H-pyrrol-2-yl]-2-oxo-acetamide]: the minimal inhibitory concentration (MIC) was 1 to 10 µg/mL (≈ 2.42 to 24.2 µM) in [1]; 1 to 10 µg/mL (≈ 2.42 to 24.2 µM) in assay [2]; 1 to 10 µg/mL (≈ 2.42 to 24.2 µM) with Aspergillus terreus AT4 [3]; > 10 µg/mL in the assay on Aspergillus niger [4]; 1 to 10 µg/mL (≈ 2.42 to 24.2 µM) with Aspergillus terreus AT49 [5]; 1 to 10 µg/mL (≈ 2.42 to 24.2 µM) with Aspergillus flavus [6]. The minimal inhibitory concentration (MIC) (in [7]; in [8]; in the assay on Aspergillus terreus AT4 [9]; in the assay on Aspergillus niger [10]; with Aspergillus terreus AT49 [11]; with Aspergillus flavus [12]) was > 10 µg/mL in each case.

As for `Cc1cc(-c2ccccc2)c(C(=O)C(=O)Nc2ccc(N3CCCCC3)cc2F)n1C` [Example 106, 2-(1,5-Dimethyl-3-phenyl-1H-pyrrol-2-yl)-N-(2-fluoro-4-piperidin-1-yl-phenyl)-2-oxo-acetamide], the MIC (in assay [1]; in assay [2]; in the assay on Aspergillus terreus AT4 [3]; with Aspergillus niger [4]; in the assay on Aspergillus terreus AT49 [5]; in the assay with Aspergillus flavus [6]) was < 1 µg/mL in each case. For the same molecule, the minimum inhibitory concentration (MIC) (in [7]; in assay [8]; in the assay with Aspergillus terreus AT4 [9]; with Aspergillus niger [10]; in the assay on Aspergillus terreus AT49 [11]; in the assay on Aspergillus flavus [12]) was < 1 µg/mL throughout.

Regarding `CSCCn1c(C)cc(-c2ccccc2)c1C(=O)C(=O)Nc1ccc(N2CCN(c3cc(C)cc(C)n3)CC2)cc1` [Example 133, N-{4-[4-(4,6-Dimethyl-pyridin-2-yl)-piperazin-1-yl]-phenyl}-2-[5-methyl-1-(2-methylsulfanyl-ethyl)-3-phenyl-1H-pyrrol-2-yl]-2-oxo-acetamide], the MIC in assay [1] is < 1 µg/mL; in [2], < 1 µg/mL; with Aspergillus terreus AT4 [3], < 1 µg/mL; in the assay on Aspergillus niger [4], < 1 µg/mL; in the assay with Aspergillus terreus AT49 [5], < 1 µg/mL; with Aspergillus flavus [6], 1 to 10 µg/mL (≈ 1.76 to 17.6 µM). For the same molecule, the MIC in assay [7] was < 1 µg/mL; in assay [8], < 1 µg/mL; with Aspergillus terreus AT4 [9] it was 1 to 10 µg/mL (≈ 1.76 to 17.6 µM); in the assay with Aspergillus niger [10], < 1 µg/mL; in the assay with Aspergillus terreus AT49 [11] it was 1 to 10 µg/mL (≈ 1.76 to 17.6 µM); in the assay with Aspergillus flavus [12], > 10 µg/mL.
